Test results as given in publication PMC4967021 (Biochemical and biophysical research communications, 2016).

Target: T1, CCL21 (Homo sapiens, UniProt O00585)
T1 sequence (O00585 24-134): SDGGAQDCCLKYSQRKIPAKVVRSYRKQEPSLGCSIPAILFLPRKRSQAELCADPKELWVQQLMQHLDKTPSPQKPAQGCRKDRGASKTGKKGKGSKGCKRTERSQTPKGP
Test: […]-1H HSQC NMR titration, chemical shift perturbation fit with ligand depletion
Format: binding
Details: 100 µM 15N-CCL21, 25 mM deuterated MES pH 6.0, 10% D2O, 0.2% NaN3

Kd: ~500 µM
SMILES: O=C(O)C1=C[C@H](O)[C@@H](OS(=O)(=O)O)[C@H](O[C@H]2[C@H](O)[C@@H](NS(=O)(=O)O)C(O)O[C@@H]2COS(=O)(=O)O)O1 (stereo partly shown) [heparin disaccharide I-S]
